In data set [1] the test system is E. coli. Put plainly: MIC against E. coli. As to conditions: for MIC: Escherichia coli, read-out: MIC, E. coli; for MIC, E. coli: Table 6c.
Method: (§2) Minimum inhibitory concentrations (MICs) of the antimicrobials and their pro-drugs were assessed according to Jennifer M. Andrews, Journal of Antimicrobial Chemotherapy 48, suppl.
Data set [2] relates to S. aureus. Nature of the data set: MIC against S. aureus. The conditions noted are these: for MIC: Staphylococcus aureus, read-out: MIC, S. aureus; for MIC, S. aureus: Table 6c.
Method: as §2
Data set [3] has as its system E. faecalis. Nature of the data set: MIC against E. faecalis. It counts as cell-based. As to conditions: Table 6c; for MIC: Enterococcus faecalis.
For data set [4] the following is noted: mouse, in vivo. The protocol: In vivo rates of penetration of HPPs of beta-lactam antibiotics through skin and blood-brain barrier of intact hairless mice were studied. […] After 2 hours, the mice were killed. 5 ml of methanol was added to 1 g of homogenized blood, liver, kidney, muscle, or brain. The samples were centrifuged for 5 min and analyzed by HPLC (Table 2).

A short description of data set [5]: Conversion of HPPs to parent drugs in human plasma (half life). It counts as in vitro ADME. The protocol: HPPs of antimicrobials or antimicrobial-related compounds converted to the parent antimicrobials or antimicrobial-related compounds quickly in good yield in human plasma.
A HPP of antimicrobial or antimicrobial-related compound (10 mg) was dissolved in 0.1 ml of 0.2M pH 7.4 phosphate buffer. 1 ml of human plasma, preheated to 37° C., was added into the mixture. The mixture was kept in a water bath at 37° C., and at every 2 min intervals 0.2 ml of samples were withdrawn and added to 0.4 ml of methanol to precipitate the plasma protein.

Data set [6] has as its system methicillin-resistant Staphylococcus aureus (MRSA). Nature of the data set: MIC against MRSA. As to conditions: Table 6a. It counts as cell-based.
The nature of data set [7]: In vitro penetration across isolated human skin in modified Franz cells. The conditions noted are these: pH 7.4; for In vitro Penetration Rate (apparent flux), Parent compounds: human, 10 %. The protocol:
Penetration rates of HPPs and their parent drugs through human skin were measured in vitro by modified Franz cells. A Franz cell had two chambers, the top sample chamber and the bottom receiving chamber. The human skin tissue (360-400 μm thick) that separated the top and the receiving chambers was isolated from the anterior or posterior thigh areas.
A test compound (2 mL, 10% in 0.2 M phosphate buffer, pH 7.4) was added to the sample chamber of a Franz cell. The receiving chamber contained 10 ml of 0.2 M phosphate buffer which was stirred at 600 rpm. The amount of the tested compound penetrating the skin was determined by high-performance liquid chromatography (HPLC) method.

For data set [8], the system named is Aspergillus giganteus. Nature of the data set: Antifungal MIC in vitro. It counts as cell-based.
Data set [9] deals with Fusarium oxisporum. Nature of the data set: Antifungal MIC in vitro. Type of data set: cell-based.
Data set [10] relates to Aspergillus niger. Nature of the data set: Antifungal MIC in vitro. Type of data set: cell-based.
Data set [11] deals with Aspergillus tereus. Nature of the data set: Antifungal MIC in vitro. Type of data set: cell-based.
The test system of data set [12] is Aspergillus nidulans. Put plainly: Antifungal MIC in vitro. It counts as cell-based.
The test system of data set [13] is Trichophyton mentagrophytes. Put plainly: Antifungal MIC in vitro. Type of data set: cell-based.
In data set [14] the test system is Microsporum canis. Put plainly: Antifungal MIC in vitro. Type of data set: cell-based.
Data set [15] is described as follows: Clinical cure of cow mastitis, topical treatment. It counts as in vivo, lactating dairy cows. As to conditions: cows, 500 mg in 10 ml pH 7.4 phosphate buffer sprayed on skin of udder twice per day. The protocol:
(§1) 90 lactating dairy cows were recruited. Bacteriological cure was considered to have been achieved if the samples taken from the affected quarter on day 17 and day 22 were free of the bacterial species isolated in the pretreatment sample. Clinical cure was defined as the disappearance of clinical signs of disease which were observed on day 1 before treatment, in other words by the return to normal feed intake, rectal temperature<39.0° C., good general condition, absence of udder edema, normal milk appearance, and normal milk yield.

Data set [16] relates to Candida albicans. Put plainly: Antifungal MIC in vitro. Type of data set: cell-based.
Data set [17] deals with Fusarium aquaductum. Put plainly: Antifungal MIC in vitro. It counts as cell-based.
Data set [18] relates to Penicillium carylophilium. Put plainly: Antifungal MIC in vitro. Type of data set: cell-based.
Data set [19] deals with Streptococcus uberis. Put plainly: Bacteriological cure of cow mastitis, topical treatment. It counts as in vivo. The conditions noted are these: cows, day 22, topical 500 mg twice per day. The procedure:
as §1

Data set [20] concerns Coagulase-negative staphylococci. The data set is described as above. Type of data set: in vivo. As to conditions: cows, day 22, topical 500 mg twice per day. The procedure:
as §1

Data set [21] concerns Staphylococcus aureus. The data set is described as above. Type of data set: in vivo. As to conditions: cows, day 22, topical 500 mg twice per day. The procedure:
as §1

The test system of data set [22] is Enterobacteriaceae. The description is as above. Type of data set: in vivo. The conditions noted are these: cows, day 22, topical 500 mg twice per day. The procedure:
as §1

For data set [23], the system named is E. coli. Described as above. As to conditions: cows, day 22, topical 500 mg twice per day. It counts as in vivo. The procedure: as §1
Setting [24] is: Staphylococcus aureus, MRSA, read-out: MIC.

≈ marks a conversion by molar mass, not a printed value. Read-outs that look alike come from different tables or passages of the source.

On to `Cc1noc(NS(=O)(=O)c2ccc(N)cc2)c1C` [Sulfisoxazole], for which the results for the MIC in data set [1], in data set [2] and in data set [3] were 16 µg/mL (≈ 59.9 µM), 64 µg/mL (≈ 239 µM) and 55 µg/mL (≈ 206 µM), respectively.
Take `CCN(CC)CCOC(=O)C1N2C(=O)C(NC(=O)C3C(c4ccccc4)=NOC3C)C2SC1(C)C.Cl` (stereo not shown) [6-(5-methyl-3-phenyl-2-isoxazoline-4-carboxamido)penicillinic acid 2-diethylaminoethyl ester hydrochloride]: in [4], the “Amount of parent drug found in Blood” value came to 28 ± 5 µg/g, the “Amount of parent drug found in Brain” value was 8 ± 6 µg/g, the “Amount of parent drug found in Kidney” value was determined as 16 ± 5 µg/g and the “Amount of parent drug found in Liver” value stood at 18 ± 7 µg/g. Besides, the “Amount of parent drug found in Muscel” value in data set [4] was 22 ± 5 µg/g. In data set [5] (human, plasma), the “Half life of HPPs in plasma” value amounted to 12 ± 1 min.
With `CCN(CC)CCOC(=O)C1N2C(=O)C(NC(=O)c3c(-c4ccccc4Cl)noc3C)C2SC1(C)C.Cl` (stereo not shown) [6-[3-(o-chlorophenyl)-5-methyl-4-isoxazolecarboxamido]penicillinic acid 2-diethylaminoethyl ester hydrochloride], in data set [4], the “Amount of parent drug found in Blood” value worked out at 25 ± 8 µg/g, the “Amount of parent drug found in Brain” value is 9 ± 5 µg/g, the “Amount of parent drug found in Kidney” value is 12 ± 7 µg/g and the “Amount of parent drug found in Liver” value was 14 ± 6 µg/g. For the same compound, in data set [4], the “Amount of parent drug found in Muscel” value came out at 20 ± 7 µg/g. Also, the “Half life of HPPs in plasma” value in [5] (human, plasma) was 8 ± 1 min.
For the compound `CC1(C)SC2C(NC(=O)COc3ccccc3)C(=O)N2C1C(=O)OCCN1CCCCC1.Cl` (stereo not shown) [penicillin V-PEE, 6-phenoxyacetacetamidopenicillanic acid 1-piperidineethyl ester hydrochloride], in [6], the MIC came to 1 µg/mL.
Regarding `CO/N=C(\C(=O)N[C@@H]1C(=O)N2C(C(=O)O)=CCS[C@H]12)c1csc(N)n1` [Ceftizoxime, reference compound], in data set [6] (setting [24]), the MIC is 2790 µg/mL (≈ 7270 µM). The “In vitro Penetration Rate (apparent flux), Parent compounds” value in data set [7] is listed as below 0.010 mg/cm^2/h.
In the case of `CCCCOC(=O)c1cn(C2CC2)c2cc(N3CCNCC3)c(F)cc2c1=O.Cl` [ciprofloxacin-BE, 1-cyclopropyl-6-fluoro-4-oxo-7-piperazin-1-yl-quinoline-3-carboxylic acid butyl ester•HCl salt], the “MIC, E. coli” value in data set [1] is 0.2 µg/mL. Besides, the “In vitro Penetration Rate (apparent flux), HPPs of sulfonamides, sulfones, quinolones” value in data set [7] worked out at 0.29 ± 0.02 mg/cm^2/h. Further, in [2], the “MIC, S. aureus” value is 5 µg/mL. Also, the “MIC, E. faecalis” value in [3] is 0.05 µg/mL.
As to `CCN(CC)CCOC(=O)c1cn(CC)c2nc(C)ccc2c1=O.Cl` [nalidixic acid-DEE, 1-ethyl-7-methyl-4-oxo-[1,8]naphthyridine-3-carboxylic acid N,N-diethylaminoethyl ester•HCl salt], the “MIC, E. coli” value in data set [1] worked out at 0.2 µg/mL. The “In vitro Penetration Rate (apparent flux), HPPs of sulfonamides, sulfones, quinolones” value in [7] is given as 0.25 ± 0.04 mg/cm^2/h. For the same compound, the “MIC, S. aureus” value in data set [2] worked out at 5 µg/mL. Besides, the “MIC, E. faecalis” value in data set [3] was found to be 1 µg/mL.
Turning to `CCn1cc(C(=O)O)c(=O)c2ccc(C)nc21` [nalidixic acid, 1-ethyl-7-methyl-4-oxo-[1,8]naphthyridine-3-carboxylic acid], the minimal inhibitory concentration (MIC) in data set [1] worked out at 6 µg/mL (≈ 25.8 µM); in [2], 158 µg/mL (≈ 680 µM); in [3] it was 64 µg/mL (≈ 276 µM).
With `CCN(CC)CCOC(=O)C1N2C(=O)C(NC(=O)c3c(OC)cccc3OC)C2SC1(C)C.Cl` (stereo not shown) [methicillin-DEE, 6-(2,6-dimethoxybenzamido)penicillinic acid 2-diethylaminoethyl ester hydrochloride], in data set [8], the “Minimum inhibitory concentration, Aspergillus giganteus” value was determined as 9 µg/mL. The “Minimum inhibitory concentration, Fusarium oxisporum” value in [9] was 8 µg/mL. In [10], the “Minimum inhibitory concentration, Aspergillus niger” value was 9 µg/mL. Besides, the “Minimum inhibitory concentration, Aspergillus tereus” value in data set [11] is 12 µg/mL. Besides, the “Minimum inhibitory concentration, Aspergillus nidulans” value in [12] is 8 µg/mL. Besides, the “Minimum inhibitory concentration, Trichophyton mentagrophytes” value in data set [13] is 22 µg/mL. Also, in [14], the “Minimum inhibitory concentration, Microsporum canis” value was 8 µg/mL. Further, in [15], the “Clinical Cure Rate, Day 3” value worked out at 43%; the “Clinical Cure Rate, Day 8” value was 90%; the “Clinical Cure Rate, Day 15” value is on record as 97%; the “Clinical Cure Rate, Day 22” value was found to be 100%. For the same compound, the “Minimum inhibitory concentration, Candida albicans” value in data set [16] turned out to be 16 µg/mL. For the same compound, the “Minimum inhibitory concentration, Fusarium aquaductum” value in data set [17] turned out to be 10 µg/mL. Also, the “Minimum inhibitory concentration, Penicillium carylophilium” value in [18] came to 9 µg/mL. Moreover, the “Half life of HPPs in plasma” value in data set [5] (human plasma, 37° C.) amounted to 10 ± 1 min. Moreover, in data set [19], the “Bacteriological cure rate, Streptococcus uberis” value came out at 70% and the “Bacteriological cure, No. cured, Streptococcus uberis” value stood at 7. Further, in data set [20], the “Bacteriological cure rate, Coagulase-negative staphylococci” value stood at 85.7% and the “Bacteriological cure, No. cured, Coagulase-negative staphylococci” value is 6. In addition, in data set [21], the “Bacteriological cure rate, Staphylococcus aureus” value is recorded as 80% and the “Bacteriological cure, No. cured, Staphylococcus aureus” value stood at 4. In [22], the “Bacteriological cure rate, Enterobacteriaceae” value turned out to be 75% and the “Bacteriological cure, No. cured, Enterobacteriaceae” value is reported as 6. For the same compound, in [23], the “Bacteriological cure rate, E. coli” value stood at 80% and the “Bacteriological cure, No. cured, E. coli” value turned out to be 8.
In turn, `COc1cccc(OC)c1C(=O)NC1C(=O)N2C1SC(C)(C)C2C(=O)OCC1CCCN1.Cl` (stereo not shown) [methicillin-PME, 6-(2,6-dimethoxybenzamido)penicillinic acid 2-pyrrolidinemethyl ester hydrochloride] had an MIC in [6] of 10 µg/mL.
With penicillin V [reference compound], the MIC in data set [6] came to 3524 µg/mL.
As for `O=C(O)c1cn(C2CC2)c2cc(N3CCNCC3)c(F)cc2c1=O` [Ciprofloxacin, 1-cyclopropyl-6-fluoro-4-oxo-7-piperazin-1-yl-quinoline-3-carboxylic acid], the figures for the MIC in data set [1], in [2] and in data set [3] were 10 µg/mL (≈ 30.2 µM), 128 µg/mL (≈ 386 µM) and 2 µg/mL (≈ 6.04 µM), respectively.
Take `COc1cccc(OC)c1C(=O)N[C@@H]1C(=O)N2[C@@H]1SC(C)(C)[C@@H]2C(=O)O` [Methicillin, reference compound]: in data set [6] (setting [24]), the MIC worked out at 2160 µg/mL (≈ 5670 µM). Besides, the “In vitro Penetration Rate (apparent flux), Parent compounds” value in [7] is given as below 0.001 mg/cm^2/h.

The values above are taken from patent US11485744B2, “High penetration prodrug compositions of antimicrobials and antimicrobial-related compounds” (priority 2009, dated 2022).
